Results on one compound are retold here after patent US11332485B2, “Penicillin-binding protein inhibitors” (priority 2017, dated 2022).

The assay concerns the target T1, PBP3 from Escherichia coli (Escherichia coli, UniProt P0AD68).
T1 construct: made in house
Kind of assay: Fluorescence polarization competition binding assay with Bocillin-FL. Summed up:
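Fluorescence polarization competition assay with Bocillin-FL at 0.1 μM final and purified E. coli PBP3 at 1.5 μM final in 50 mM Hepes pH 8.0, 300 mM NaCl, 5% glycerol. Inhibitor preincubated with PBP3 for 30 min before probe addition; FP then read continuously for 60 min. Potency reported in binned categories.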
In general terms: Fluorescence polarisation rises when a labelled molecule tumbles more slowly, as on binding a larger partner.

Where only a bound is given, the exact number is not on record here.

T1 sequence (P0AD68 1-577): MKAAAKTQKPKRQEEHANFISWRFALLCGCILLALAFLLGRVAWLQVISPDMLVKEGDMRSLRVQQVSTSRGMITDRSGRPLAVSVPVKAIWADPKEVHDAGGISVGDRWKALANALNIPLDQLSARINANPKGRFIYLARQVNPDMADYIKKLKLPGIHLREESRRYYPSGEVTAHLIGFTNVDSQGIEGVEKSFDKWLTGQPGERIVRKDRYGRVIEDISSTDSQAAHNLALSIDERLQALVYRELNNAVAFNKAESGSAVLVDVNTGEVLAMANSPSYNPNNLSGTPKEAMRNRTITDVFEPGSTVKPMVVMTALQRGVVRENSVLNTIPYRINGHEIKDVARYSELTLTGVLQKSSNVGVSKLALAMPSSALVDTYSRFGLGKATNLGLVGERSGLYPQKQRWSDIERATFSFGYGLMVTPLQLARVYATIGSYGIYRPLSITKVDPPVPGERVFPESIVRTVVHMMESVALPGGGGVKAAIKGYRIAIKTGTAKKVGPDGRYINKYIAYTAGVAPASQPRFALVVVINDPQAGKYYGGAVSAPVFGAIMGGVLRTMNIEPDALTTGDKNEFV

The EC50 is the concentration needed to bring the measured effect to its halfway point. High values mean a less potent agent, low ones a more potent agent. Take `CCN1CCN(C(=O)NC(C(=O)N[C@H]2Cc3cccc(C(=O)O)c3OB2O)c2csc(N)n2)C(=O)C1=O` (stereo partly drawn) [Example 12, (3R)-3-(2-(2-aminothiazol-4-yl)-2-(4-ethyl-2,3-dioxopiperazine-1-carboxamido)acetamido)-2-hydroxy-3,4-dihydro-2H-benzo[e][1,2]oxaborinine-8-carboxylic acid]: the concentration giving a half-maximal response (EC50) was below 30 µM.
